According to patent publication US8815903B2, “Indole derivative and pharmacologically acceptable salt thereof” (Kissei Pharmaceutical Co., Ltd., priority 2011, dated 2014):

Molecular target: T1, rat EP1 receptor (Rattus norvegicus, UniProt P70597)
T1 construct: expressed in transfected cells
T1 sequence (P70597 1-405): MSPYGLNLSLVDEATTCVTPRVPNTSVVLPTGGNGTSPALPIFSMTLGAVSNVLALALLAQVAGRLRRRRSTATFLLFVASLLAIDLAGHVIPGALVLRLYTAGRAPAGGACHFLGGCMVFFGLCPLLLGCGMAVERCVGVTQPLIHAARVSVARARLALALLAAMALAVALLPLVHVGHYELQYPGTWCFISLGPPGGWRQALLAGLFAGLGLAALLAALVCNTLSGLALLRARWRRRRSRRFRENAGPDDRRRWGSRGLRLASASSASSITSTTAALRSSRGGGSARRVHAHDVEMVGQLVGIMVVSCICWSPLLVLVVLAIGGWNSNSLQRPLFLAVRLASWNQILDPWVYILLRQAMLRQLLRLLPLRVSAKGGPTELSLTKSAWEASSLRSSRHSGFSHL
Experiment: Test for confirmation of EP1 receptor antagonism (inhibition of PGE2-induced increase in intracellular calcium concentration)
Format: cell-based
Conditions: rat EP1 receptor-expressing COS-1 cells; prostaglandin E2 10 nM; fluorescent calcium indicator, FDSS 7000
Description: Test for Confirmation of EP1 Receptor Antagonism
(1) Preparation of Rat EP1 Expression Vector
Using Rat Kidney BD Marathon-Ready cDNA (Nippon Becton Dickinson Company, Ltd.) as a template, a forward primer shown in (SEQ ID NO:1), and a reverse primer shown in (SEQ ID NO:2), a first run of PCR was carried out using KOD-Plus-Ver 2.0 (Toyobo Co., Ltd.). Further, using this amplification product as a template, a forward primer shown in (SEQ ID NO:3), and a reverse primer shown in (SEQ ID NO:4), a second run of PCR was carried out in the same manner. The amplification product obtained by the second run of PCR was incorporated into a vector (pcDNA3.1 D/V5-His-TOPO (registered trademark), Invitrogen Japan K. K.). By a conventional method, the vector containing this amplification product was introduced to E. coli (One Shot TOP 10 Competent Cells, Invitrogen Corporation) to transform. This transformed E. coli was cultured in an LB agar medium for one day. After the culture, colonies were selected and cultured in an LB liquid medium containing 50 μg/mL of ampicillin. After the culture, the vector was purified using a QIAprep Spin Miniprep Kit (Qiagen K. K.). The base sequence of the insertion site of this vector (SEQ ID NO:5) was compared with the rat EP1 base sequence (Ptger1) registered as Accession No. NM_013100 in publicly-known database (NCBI), and as a result, they all matched except for a single base. Further, the amino acid sequence translated by the base sequence completely matched the amino acid sequence of the rat EP1 receptor registered as an NCBI Accession No. NP_037232. Therefore, it was confirmed that the cloned gene sequence was a base sequence of the rat EP1 receptor and the obtained amino acid sequence was that of the rat EP1 receptor. The pcDNA3.1 D/V5-His-TOPO (registered trademark) to which the nucleic acid shown in (SEQ ID NO:5) had been inserted was taken as a rat EP1-expressing vector.
(2) Preparation of Rat EP1 Receptor-Expressing Cells
COS-1 cells (Dainippon Sumitomo Pharma Co., Ltd.) were cultured until they reached confluence in an incubator at 37° C. under a 5% CO2 gas condition, using a D-MEM liquid medium (high glucose and L-glutamine contained, Invitrogen Corporation) to which a penicillin-streptomycin solution (Invitrogen Corporation, final concentration: 100 U/mL as benzylpenicillin; 100 μg/mL as streptomycin) as an antibiotic, MEM nonessential amino acids (Invitrogen Corporation, final concentration: 0.1 mM), and fetal calf serum (Sanko Junyaku Co., Ltd., final concentration: 10%) were added.
The cells that had reached confluence were stripped with 0.05% trypsin/0.53 mM EDTA.4Na, and resuspended in a D-MEM liquid medium (high glucose and L-glutamine contained, Invitrogen Corporation) to which an MEM nonessential amino acid (final concentration: 0.1 mM) and fetal calf serum (final concentration: 10%) were added. In each well of a Poly D-lysine-coated 96-well microplate (BD BioCoat (registered trademark), Nippon Becton Dickinson Company, Ltd.), this resuspended cell suspension culture was prepared to be 5×10^4 cells/well in 100 μL of the liquid medium, and 100 μL of the cell suspension was seeded on each well. After seeding, the cells were cultured in an incubator at 37° C. under a 5% CO2 gas condition. At a point when the cells for introduction of a rat EP1-expressing vector were adhered (about 2 hours after seeding), introduction of the rat EP1-expressing vector was carried out in the following order.
For introduction of the rat EP1-expressing vector, Lipofectamine 2000 (Invitrogen Japan K. K.) was used. The rat EP1-expressing vector was diluted with OPTI-MEM (registered trademark) I Reduced-Serum Medium (Invitrogen Japan K. K.) to 200 ng/25 μL/well, and at the same time, Lipofectamine 2000 (Invitrogen Japan K. K.) was also diluted with OPTI-MEM (registered trademark) I Reduced-Serum Medium (Invitrogen Japan K. K.) to 0.5 μL/25 μL/well, followed by incubation at room temperature for 5 minutes. […]

Structure (SMILES) | IC50 [nM]
COc1ccc2c(Cc3cccc(-c4noc(=S)[nH]4)n3)c(-c3ccccc3)[nH]c2c1 [Example 9, 3-[6-(6-Methoxy-2-phenyl-1H-indol-3-ylmethyl)pyridin-2-yl]-4,5-dihydro-1,2,4-oxadiazole-5-thione] | 50
COc1ccc2c(Cc3cccc(-c4noc(=O)[nH]4)n3)c(-c3ccoc3)[nH]c2c1 [Example 12-1] | 23
COc1ccc2c(Cc3cccc(-c4noc(=O)[nH]4)n3)c(C(C)(C)C)[nH]c2c1 [Example 12-2] | 43
COc1cc2[nH]c(-c3ccccc3)c(Cc3cccc(-c4noc(=O)[nH]4)n3)c2cc1F [Example 12-5] | 46
O=c1[nH]c(-c2cccc(Cc3c(-c4ccccc4)[nH]c4cc(C5CC5)ccc34)n2)no1 [Example 12-6] | 40
Cc1cc2[nH]c(-c3ccccc3)c(Cc3cccc(-c4noc(=O)[nH]4)n3)c2cc1C [Example 12-7] | 28
Cc1ccc2c(Cc3cccc(-c4noc(=O)[nH]4)n3)c(-c3ccsc3)[nH]c2c1 [Example 12-9] | 34
Cc1ccc2c(Cc3cccc(C(=O)NC#N)n3)c(-c3ccccc3)[nH]c2c1 [Example 16-1] | 54
COc1ccc2c(Cc3cccc(C(=O)NC#N)n3)c(C(C)(C)C)[nH]c2c1 [Example 16-2] | 48
COc1cc2[nH]c(-c3ccccc3)c(Cc3cccc(C(=O)NC#N)n3)c2cc1F [Example 16-3] | 24
COc1cc2[nH]c(C(C)(C)C)c(Cc3cccc(C(=O)NC#N)n3)c2cc1Cl [Example 16-5] | 46
Cc1ccc2c(Cc3cccc(C(=O)NC#N)n3)c(-c3ccsc3)[nH]c2c1 [Example 16-6] | 36
Cc1cc2[nH]c(-c3ccccc3)c(Cc3cccc(-c4nnn[nH]4)n3)c2cc1C [Example 17-3] | 20
COc1cc2[nH]c(C(C)C)c(Cc3cccc(-c4nnn[nH]4)n3)c2cc1Cl [Example 17-4] | 27
COc1ccc2c(Cc3cccc(-c4nnn[nH]4)n3)c(C(C)C)[nH]c2c1 [Example 17-5] | 23
COc1ccc2c(Cc3cccc(-c4nnn[nH]4)n3)c(C3CC3)[nH]c2c1 [Example 17-6] | 31
COc1ccc2c(Cc3cccc(-c4nnn[nH]4)n3)c(C3CCCCC3)[nH]c2c1 [Example 17-7] | 30

Structure (SMILES) | IC50 [nM]
Cc1ccc2c(Cc3cccc(-c4nnn[nH]4)n3)c(-c3ccoc3)[nH]c2c1 [Example 17-8] | 7.3
c1cc(Cc2c(-c3ccoc3)[nH]c3cc(C4CC4)ccc23)nc(-c2nnn[nH]2)c1 [Example 17-9] | 10
CCC(C)c1[nH]c2cc(OC)ccc2c1Cc1cccc(-c2nnn[nH]2)n1 (stereo not shown) [Example 17-10] | 22
CC1(c2[nH]c3cc(C4CC4)ccc3c2Cc2cccc(-c3nnn[nH]3)n2)CC1 [Example 17-13, 6-cyclopropyl-2-(1-methylcyclopropyl)-3-[6-(1H-tetrazol-5-yl)pyridin-2-ylmethyl]-1H-indole] | 28
CC1(c2[nH]c3cc(Cl)ccc3c2Cc2cccc(-c3nnn[nH]3)n2)CC1 [Example 17-14, 6-chloro-2-(1-methylcyclopropyl)-3-[6-(1H-tetrazol-5-yl)pyridin-2-ylmethyl]-1H-indole] | 24
COc1cc2[nH]c(-c3ccccc3)c(Cc3cccc(C(=O)NS(=O)(=O)C(C)C)n3)c2cc1F [Example 18-3] | 41
COc1cc2[nH]c(-c3ccccc3)c(Cc3cccc(C(=O)NS(=O)(=O)C4CC4)n3)c2cc1F [Example 18-4] | 35
CCCS(=O)(=O)NC(=O)c1cccc(Cc2c(-c3ccccc3)[nH]c3cc(OC)c(F)cc23)n1 [Example 18-5] | 32
CCS(=O)(=O)NC(=O)c1cccc(Cc2c(-c3ccsc3)[nH]c3cc(C)ccc23)n1 [Example 18-9] | 23
Cc1ccc2c(Cc3cccc(C(=O)NS(=O)(=O)C(C)C)n3)c(-c3ccsc3)[nH]c2c1 [Example 18-10] | 26
COc1cc2[nH]c(-c3ccccc3)c(Cc3cccc(C(=O)NS(=O)(=O)c4ccccc4)n3)c2cc1F [Example 18-11] | 27
COc1ccc2c(Cc3cccc(C(=O)NS(=O)(=O)c4ccccc4F)n3)c(C(C)(C)C)[nH]c2c1 [Example 18-13] | 40
COc1ccc2c(Cc3cccc(/C=C/c4nnn[nH]4)n3)c(-c3ccccc3)[nH]c2c1 [Example 19, 6-Methoxy-2-phenyl-3-{6-[(E)-2-(1H-tetrazol-5-yl)vinyl]pyridine-2-ylmethyl}-1H-indole] | 34
COc1cc2c(Cc3cccc(-c4nnn[nH]4)n3)c(C3(C)CC3)[nH]c2cc1Cl [Example 20-1, 6-chloro-5-methoxy-2-(1-methylcyclopropyl)-3-[6-(1H-tetrazol-5-yl)pyridin-2-ylmethyl]-1H-indole] | 27
CCc1ccc2c(Cc3cccc(-c4nnn[nH]4)n3)c(C3(C)CC3)[nH]c2c1 [Example 20-2, 6-ethyl-2-(1-methylcyclopropyl)-3-[6-(1H-tetrazol-5-yl)pyridin-2-ylmethyl]-1H-indole] | 15
COc1cc2[nH]c(C3(C)CC3)c(Cc3cccc(-c4nnn[nH]4)n3)c2cc1C [Example 20-4, 6-methoxy-5-methyl-2-(1-methylcyclopropyl)-3-[6-(1H-tetrazol-5-yl)pyridin-2-ylmethyl]-1H-indole] | 14
COc1ccc2c(Cc3cccc(-c4nnn[nH]4)n3)c(-c3cncnc3)[nH]c2c1 [Example 23, 6-Methoxy-2-pyrimidin-5-yl-3-[6-(1H-tetrazol-5-yl)pyridin-2-ylmethyl]-1H-indole] | 11
